Results reported in PMC5846083 (Journal of Medicinal Chemistry, 2018).

Key:
Na,K-ATPase α4 = Na,K-ATPase α4 (Rattus norvegicus, UniProt Q64541); assay: Inhibition of Na,K-ATPase α4 activity; format: biochemical; conditions: for reduced activity compared to ouabain: Na,K-ATPase α4 inhibition; for loss of Na,K-ATPase α4 inhibitory activity versus comparator: 29 versus 32, 19 versus 25; for IC50 for Na,K-ATPase α4 inhibition (Figure 1): recombinant rat α4, mean of two experiments in quadruplicate
rat sperm [1] = assay: Rat sperm motility in vitro; format: cell-based; conditions: for maximum reduction of sperm motility: even at high concentrations
hERG = hERG (Homo sapiens, UniProt Q12809); assay: hERG competitive displacement fluorescence polarization assay
Sequence of hERG (Q12809 whole entry): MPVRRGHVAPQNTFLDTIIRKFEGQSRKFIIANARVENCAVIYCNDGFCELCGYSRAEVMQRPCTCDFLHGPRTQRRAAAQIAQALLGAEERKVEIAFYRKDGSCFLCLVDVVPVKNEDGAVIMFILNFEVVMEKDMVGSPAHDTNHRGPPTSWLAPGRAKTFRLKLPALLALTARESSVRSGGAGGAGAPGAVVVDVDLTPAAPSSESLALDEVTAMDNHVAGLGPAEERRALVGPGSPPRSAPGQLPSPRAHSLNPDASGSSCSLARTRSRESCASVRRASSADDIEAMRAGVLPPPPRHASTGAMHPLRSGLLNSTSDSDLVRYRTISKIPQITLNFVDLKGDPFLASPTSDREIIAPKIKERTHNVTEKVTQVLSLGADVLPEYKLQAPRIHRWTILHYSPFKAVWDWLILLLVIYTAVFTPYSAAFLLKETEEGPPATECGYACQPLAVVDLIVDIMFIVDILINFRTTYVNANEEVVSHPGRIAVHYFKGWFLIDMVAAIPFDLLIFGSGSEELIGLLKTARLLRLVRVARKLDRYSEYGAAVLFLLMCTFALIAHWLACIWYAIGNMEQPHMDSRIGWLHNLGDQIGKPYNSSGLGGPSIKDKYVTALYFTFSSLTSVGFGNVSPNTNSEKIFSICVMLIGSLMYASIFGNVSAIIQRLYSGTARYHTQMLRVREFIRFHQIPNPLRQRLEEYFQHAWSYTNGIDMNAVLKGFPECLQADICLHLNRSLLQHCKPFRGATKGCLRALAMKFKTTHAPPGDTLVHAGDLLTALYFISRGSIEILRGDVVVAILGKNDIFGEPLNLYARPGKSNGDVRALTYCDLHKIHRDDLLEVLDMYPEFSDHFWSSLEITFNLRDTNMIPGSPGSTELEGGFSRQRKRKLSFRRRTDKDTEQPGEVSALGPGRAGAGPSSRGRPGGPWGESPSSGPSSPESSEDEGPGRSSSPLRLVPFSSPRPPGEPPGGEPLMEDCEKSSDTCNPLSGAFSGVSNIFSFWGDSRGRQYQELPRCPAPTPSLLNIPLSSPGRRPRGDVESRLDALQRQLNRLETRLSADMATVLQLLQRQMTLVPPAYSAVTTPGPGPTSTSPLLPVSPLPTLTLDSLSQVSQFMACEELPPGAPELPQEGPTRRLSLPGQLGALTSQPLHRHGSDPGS

rat sperm [2] = assay: Sperm membrane potential; format: cell-based; conditions: 10^–8 M, 1 h
rat sperm [3] = assay: Sperm intracellular pH, SNARF-1; format: cell-based; conditions: 10^–8 M, 1 h
rat sperm [4] = assay: Sperm intracellular Ca2+, Calcium Green; format: cell-based; conditions: 10^–8 M, 1 h
[5] = General toxicity in treated rats; format: in vivo, rat; conditions: oral gavage, 5–20 mg/kg
rat sperm [6] = assay: Sperm hyperactivated motility under capacitating conditions; conditions: 10^–8 M, 1 h, capacitating medium
human Na,K-ATPase α4 = conditions: human isoforms; cited from earlier work

Sequence of Na,K-ATPase α4 (Q64541 whole entry, other chains not shown): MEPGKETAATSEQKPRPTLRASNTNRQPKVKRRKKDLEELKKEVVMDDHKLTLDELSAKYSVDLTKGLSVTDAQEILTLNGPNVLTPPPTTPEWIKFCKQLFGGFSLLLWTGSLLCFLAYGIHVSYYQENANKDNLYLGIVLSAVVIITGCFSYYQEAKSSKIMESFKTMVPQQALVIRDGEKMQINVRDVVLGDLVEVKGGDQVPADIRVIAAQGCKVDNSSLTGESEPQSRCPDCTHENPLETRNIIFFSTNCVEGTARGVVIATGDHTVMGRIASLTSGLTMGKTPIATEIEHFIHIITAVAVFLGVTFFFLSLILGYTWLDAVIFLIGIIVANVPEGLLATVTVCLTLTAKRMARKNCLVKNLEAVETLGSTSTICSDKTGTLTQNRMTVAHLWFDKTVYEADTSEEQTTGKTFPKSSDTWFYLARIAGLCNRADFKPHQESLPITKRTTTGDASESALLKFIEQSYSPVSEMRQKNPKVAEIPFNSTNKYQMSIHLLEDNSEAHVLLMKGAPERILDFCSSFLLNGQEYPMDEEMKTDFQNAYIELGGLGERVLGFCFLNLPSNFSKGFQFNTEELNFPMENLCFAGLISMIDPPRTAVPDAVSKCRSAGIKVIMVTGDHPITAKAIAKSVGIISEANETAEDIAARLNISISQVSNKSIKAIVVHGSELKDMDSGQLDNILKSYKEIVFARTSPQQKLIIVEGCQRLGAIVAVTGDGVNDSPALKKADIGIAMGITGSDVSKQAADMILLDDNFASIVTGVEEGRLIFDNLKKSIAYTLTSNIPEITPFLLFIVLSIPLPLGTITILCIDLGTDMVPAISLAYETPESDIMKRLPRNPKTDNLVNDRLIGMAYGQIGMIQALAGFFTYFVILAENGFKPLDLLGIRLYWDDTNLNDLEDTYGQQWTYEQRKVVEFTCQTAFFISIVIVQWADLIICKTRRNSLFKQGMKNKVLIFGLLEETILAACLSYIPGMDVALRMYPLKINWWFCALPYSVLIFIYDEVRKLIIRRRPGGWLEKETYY

Compound: C[C@]12C[C@@H](O)[C@H]3[C@@H](CC[C@]4(O)C[C@@H](O)C[C@@H](O)[C@]34CO)[C@@]1(O)CCC2c1cn(Cc2ccc(F)cc2)nn1 (mixture of isomers) [Compound 27, (1R,3S,5S,8R,9S,10R,11R,13R,14S,17S)-17-(1-(4-Fluorobenzyl)-1H-1,2,3-triazol-4-yl)-10-(hydroxymethyl)-13-methyltetradecahydro-5H-cyclopenta[a]phenanthrene-1,3,5,11,14(2H)-pentaol]
- IC50 (Na,K-ATPase α4): 0.03 µM

Compound: COCO[C@@H]1[C@H]2OC(C)(C)O[C@H]2[C@H](O[C@H]2C[C@H]3OC(C)(C)OC[C@]34[C@@H]3[C@@H](CC[C@]4(O)C2)[C@@]2(O)CC[C@H](CO)[C@@]2(C)C[C@H]3OCOC)O[C@H]1C [Compound 10, (3S,3aR,5R,5aS,5bR,9aR,11S,12aS,14aR,14bS)-3-(Hydroxymethyl)-5-(methoxymethoxy)-11-(((3aR,4R,6S,7S,7aR)-7-(methoxymethoxy)-2,2,6-trimethyltetrahydro-4H-[1,3]dioxolo[4,5-c]pyran-4-yl)oxy)-3a,8,8-trimethyltetradecahydro-6H-cyclopenta[7,8]phenanthro[4,4a-d][1,3]dioxine-12a,14b-diol]
- effect on other parameters of sperm movement (progressive motility, velocities, linearity, beat cross frequency) (rat sperm [1]; 1 h incubation): directly block all parameters of sperm movement
- maximum reduction of sperm motility (rat sperm [1]): 50–60%
- IC50 (hERG): > 60 µM

Compound: COCO[C@@H]1[C@H]2OC(C)(C)O[C@H]2[C@H](O[C@H]2C[C@H]3OC(C)(C)OC[C@]34[C@@H]3[C@@H](CC[C@]4(O)C2)[C@@]2(O)CC[C@H](C#N)[C@@]2(C)C[C@H]3OCOC)O[C@H]1C [Compound 11, (3S,3aR,5R,5aS,5bR,9aR,11S,12aS,14aR,14bS)-12a,14b-Dihydroxy-5-(methoxymethoxy)-11-(((3aR,4R,6S,7S,7aR)-7-(methoxymethoxy)-2,2,6-trimethyltetrahydro-4H-[1,3]dioxolo[4,5-c]pyran-4-yl)oxy)-3a,8,8-trimethylhexadecahydro-6H-cyclopenta[7,8]phenanthro[4,4a-d][1,3]dioxine-3-carbonitrile]
- reduced activity compared to ouabain (Na,K-ATPase α4): about 10 fold

Compound: COCO[C@H]1C[C@H]2OC(C)(C)OC[C@]23[C@@H]2[C@@H](CC[C@]3(O)C1)[C@@]1(OCOC)CC[C@H](CO)[C@@]1(C)C[C@H]2OCOC [Compound 17, (3S,3aR,5R,5aS,5bR,9aR,11S,12aS,14aR,14bS)-3-(Hydroxymethyl)-5,11,14b-tris(methoxymethoxy)-3a,8,8-trimethyltetradecahydro-6H-cyclopenta[7,8]phenanthro[4,4a-d][1,3]dioxin-12a(1H)-ol]
- effect on other parameters of sperm movement (progressive motility, velocities, linearity, beat cross frequency) (rat sperm [1]; 1 h incubation): directly block all parameters of sperm movement
- maximum reduction of sperm motility (rat sperm [1]): 50–60%
- IC50 (hERG): > 60 µM

Compound: COc1ccc(-c2cn(C[C@H]3CC[C@]4(O)[C@@H]5CC[C@]6(O)C[C@@H](O)C[C@@H](O)[C@]6(CO)[C@H]5[C@H](O)C[C@]34C)nn2)cc1 [Compound 19, (1R,3S,5S,8R,9S,10R,11R,13R,14S,17S)-10-(Hydroxymethyl)-17-((4-(4-methoxyphenyl)-1H-1,2,3-triazol-1-yl)methyl)-13-methyltetradecahydro-5H-cyclopenta[a]phenanthrene-1,3,5,11,14(2H)-pentaol]
- loss of Na,K-ATPase α4 inhibitory activity versus comparator (Na,K-ATPase α4): 7 orders of magnitude

Compound: C[C@]12C[C@@H](O)[C@H]3[C@@H](CC[C@]4(O)C[C@@H](O)C[C@@H](O)[C@]34CO)[C@@]1(O)CC[C@@H]2c1cn(Cc2ccccc2)nn1 [Compound 25, (1R,3S,5S,8R,9S,10R,11R,13R,14S,17S)-17-(1-Benzyl-1H-1,2,3-triazol-4-yl)-10-(hydroxymethyl)-13-methyltetradecahydro-5H-cyclopenta[a]phenanthrene-1,3,5,11,14(2H)-pentaol]
- decrease of total sperm motility (rat sperm [1]; 10^–8 M and higher, 1 h incubation): approximately 60%
- effect on other parameters of sperm movement (progressive motility, velocities, linearity, beat cross frequency) (rat sperm [1]; 1 h incubation): directly block all parameters of sperm movement
- maximum reduction of sperm motility (rat sperm [1]): 50–60%
- increase of sperm Vm (plasma membrane depolarization) (rat sperm [2]): approximately 40%
- effect on sperm intracellular pH (rat sperm [3]): caused intracellular sperm acidification
- increase of [Ca2+]i in sperm (rat sperm [4]): approximately 40%
- toxic effect on treated rats [5]: did not exert any major toxic effect
- reduction of hyperactivation accompanying sperm capacitation (rat sperm [6]): approximately 70%
- IC50 (hERG): > 60 µM

Compound: COCO[C@H]1C[C@H]2OC(C)(C)OC[C@]23[C@@H]2[C@@H](CC[C@]3(O)C1)[C@@]1(OCOC)CC[C@H](C#N)[C@@]1(C)C[C@H]2OCOC [Compound 29, (3S,3aR,5R,5aS,5bR,9aR,11S,12aS,14aR,14bS)-12a-Hydroxy-5,11,14b-tris(methoxymethoxy)-3a,8,8-trimethylhexadecahydro-6H-cyclopenta[7,8]phenanthro[4,4a-d][1,3]dioxine-3-carbonitrile]
- loss of Na,K-ATPase α4 inhibitory activity versus comparator (Na,K-ATPase α4): 3 orders of magnitude

Compound: COCO[C@H]1C[C@H]2OC(C)(C)OC[C@]23[C@@H]2[C@@H](CC[C@]3(O)C1)[C@@]1(OCOC)CC[C@H](C(=O)O)[C@@]1(C)C[C@H]2OCOC [Compound 32, (3S,3aR,5R,5aS,5bR,9aR,11S,12aS,14aR,14bS)-12a-Hydroxy-5,11,14b-tris(methoxymethoxy)-3a,8,8-trimethylhexadecahydro-6H-cyclopenta[7,8]phenanthro[4,4a-d][1,3]dioxine-3-carboxylic Acid]
- reduced activity compared to ouabain (Na,K-ATPase α4): about 10 fold

Compound: CO[C@H]1C[C@H](O[C@H]2CC[C@]3(C=O)[C@H]4CC[C@]5(C)[C@@H](C6=CC(=O)OC6)CC[C@]5(O)[C@@H]4CC[C@]3(O)C2)O[C@H](C)[C@H]1O [cymarin, reference compound]
- IC50 for Na,K-ATPase α4 inhibition (Figure 1) (Na,K-ATPase α4): 10^–8 to 10^–9 M

Compound: C[C@@H]1O[C@@H](O[C@H]2C[C@@H](O)[C@]3(CO)[C@H]4[C@H](O)C[C@]5(C)[C@@H](C6=CC(=O)OC6)CC[C@]5(O)[C@@H]4CC[C@]3(O)C2)[C@H](O)[C@H](O)[C@H]1O [ouabain]
- sensitivity to ouabain, human Na,K-ATPase α4 versus α1 (human Na,K-ATPase α4): ~100 fold

Compound: C[C@]12CC[C@H]3[C@@H](CC[C@]4(O)C[C@@H](O)CC[C@]34C=O)[C@@]1(O)CC[C@@H]2C1=CC(=O)OC1 [strophanthidin, reference compound]
- IC50 for Na,K-ATPase α4 inhibition (Figure 1) (Na,K-ATPase α4): 10^–8 to 10^–9 M
